“Also recorded” adds a separate entry of the source. Where two headings read alike, the source gives them in different places.
Experiments:
[1] = tested on: mouse hybridoma cell line (9E10)
Method: A mouse hybridoma cell line (9E10), producing anti-Myc antibody, previously subcultured in modified CDSS supplemented with 1 mg/L human transferrin and 6 mM Glutamine was used to inoculate experimental flasks at an inoculation density of 1×10^5 cells/ml.
Flasks were subcultured by dilution with fresh medium back to 1×10^5 cells/ml at 3 day intervals. On the third subculture flasks were allowed to overgrow. Cell counts were performed using the trypan blue exclusion method.

[2] = tested on: GS-NSO cell lines (Cell Lines C, D and E); settings: protein free FAC medium, 4.5 L and 100 L
Method: Cell Line C was grown at both 4.5 and 100 L scale, Cell Line D at 4.5 L scale and Cell Line E at 100 L scale.

[3] = tested on: recombinant GS-NS0 mouse myeloma cell line (Cell line A); format: cell-based
[4] = tested on: cell line A; settings: 1 mg/L FAC, serum free and protein free GSF medium
Text: Innoculum for these fermentations was provided by subculture of the cells in media the same as that used in the fermentations.

[5] = tested on: hybridoma cells; settings: cited from earlier work
[6] = tested on: recombinant NS0 mouse myeloma cell line selected using a G418 selection system; settings: 1 mg/L FAC vs 1 mg/L transferrin and 0.1 mg/L FAC
Text: After 5 days, flasks were subcultured and then allowed to follow the full growth cycle.

[7] = tested on: recombinant GS-NS0 mouse myeloma cell line (Cell line A); format: cell-based; remark: listed apart in the source
[8] = tested on: hybridoma cell lines; settings: cited from earlier work
[9] = tested on: NSO myeloma cell lines; settings: FAC alone, 0.2 mg/L; cited from earlier work
[10] = tested on: recombinant GS-NS0 cell line (Cell line B)
Method: Cells resuspended in this medium were then used to inoculate experimental flasks at an inoculation density of 2×10^5 cells/ml.
All flasks were also supplemented with 1 ml/L of a 1000× concentrated cholesterol and fatty acid supplement (CLOC).
Flasks were subcultured by dilution with fresh medium back to 2×10^5 cells/ml at 5 day intervals. On the second subculture flasks were allowed to overgrow to saturation. Cell counts were performed using the trypan blue exclusion method. Antibody titre analysis was performed using analytical protein A hplc against a homologous standard.

In the case of ferric ammonium citrate [FAC], the proliferation over subcultures ([1]; 0.2 mg/L) is reported as “unable to proliferate beyond the first subculture”, the proliferation over subcultures ([1]; 0.4 mg/L) is reported as “unable to proliferate beyond the first subculture” and the proliferation over subcultures ([1]; 1 mg/L) is reported as “unable to proliferate beyond the second subculture”. The proliferation over subcultures ([1]; 2 mg/L) was “unable to proliferate beyond the second subculture”, the proliferation over subcultures ([1]; 10 mg/L) was “unable to proliferate beyond the second subculture” and the “FAC concentration required by hybridoma cell lines relative to GS-NS0 cells for continuous cell growth” value ([1]; agitated suspension culture) was over 100 ×. For the same compound, the “concentration required to support growth” value ([1]; hybridoma 9E10, agitated suspension) was at least 50 mg/L, the “concentration required for growth equivalent to transferrin containing control, maximum viable cell number” value ([1]; overgrow cultures) was 100 mg/L and the “concentration giving growth equivalent to transferrin containing control, cumulative cell hours (CCH)” value ([1]; overgrow cultures, integral of area underneath growth curve) was 50 mg/L. For the same compound, the “growth and antibody productivity” value [2] was “supports good growth of, and antibody productivity in, a wide range of cell lines”, the “more antibody produced at 0.4 mg/L than at 100 mg/L” value ([3]; culture with 0.4 mg/L vs culture with 100 mg/L) was “over 30%” and the “antibody titre compared to the transferrin containing control” value ([3]; overgrow cultures, sandwich ELISA) was “at least as much, and in the majority of the cases significantly more antibody”. For the same compound, the “growth and antibody production” value [4] was “able to support good growth and antibody production in both media”, the “support of hybridoma growth” value ([5]; 10 mg/L, agitated suspension culture, WO 94/02592) was “this was not the case in agitated suspension culture” and the “support of hybridoma growth” value ([5]; FAC alone, between 0.1 and 10 mg/L, no transferrin or tropolone) was “incapable of supporting the growth of hybridoma cells”. The optimum concentration ([5]; FAC used with tropolone) was 0.2 mg/L, the “growth vs transferrin containing medium” value [6] was “Equivalent growth” and the proliferation over subcultures ([7]; 0.2 mg/L) was “able to proliferate after the first division, but was then unable to grow further”. For the same compound, the “concentration able to support continuous cell growth” value ([7]; duplicate of the experiment (FIG. 1c)) was 0.2 mg/L, the “concentration able to support continuous cell growth over several subcultures and during the overgrow culture” value ([7]; modified CDSS, no transferrin, agitated suspension, three subcultures at 3 day intervals) was at least 0.4 mg/L and the “concentration giving growth equivalent to transferrin containing control (maximum viable cell number and area underneath the growth curve)” value ([7]; overgrow cultures) was at least 1 mg/L. For the same compound, the “support of hybridoma growth” value ([8]; 10 mg/L, static culture, WO 94/02592) was “able to support hybridoma growth in static culture”, the “support of NSO myeloma growth” value [9] was “could not support the growth of the NSO myeloma cell lines” and the “concentration supporting growth equivalent to positive control culture” value ([10]; control 5 μM tropolone and 0.4 mg/L FAC, GSF medium) was at least 0.8 mg/L. The “concentration supporting antibody production at least equivalent to control” value ([10]; overgrow cultures, protein A hplc) was at least 0.8 mg/L.

In the case of `O=c1cccccc1O` [tropolone, reference compound], the optimum concentration ([5]; tropolone used with FAC) is given as 5 µM.

In the case of `O=C([O-])CC(O)(CC(=O)[O-])C(=O)[O-].[Fe+3]` [FC, ferric citrate], the “antibody titre compared to the transferrin containing control” value [3] is reported as “at least as much, and in the case of 10 mg/L FC significantly more antibody”, the “concentration giving growth equivalent to transferrin containing control (maximum viable cell number and area underneath the growth curve)” value [7] is reported as at least 10 mg/L and the “concentration of FC relative to FAC required for cell growth equivalent to transferrin” value [7] is reported as 10 ×. For the same compound, the proliferation over subcultures [7] was “unable to proliferate beyond the first subculture; also recorded: unable to proliferate beyond the second subculture” and the “concentration required to support hybridoma cell growth with equivalence to transferrin” value [8] was 500 µM.

From US8361797B2, “Myeloma cell culture in transferrin-free low iron medium” (Medimmune Limited, priority 2003, dated 2013)
